Test results reported in patent EP1310250A1, “Use of the compound 2-methoxyphenyl-1-methyl-5P-methylbenzoyl-pyrrol-2-acetamido acetate for the production of an antiinflammatory drug with prevention of gastric hypersecretion and renal impairment” (MEDOSAN Ricerca S.r.l., priority 1997, dated 1999).

Columns and labels:
COX1 (cyclooxygenase 1) = target: T1, COX1 (cyclooxygenase 1) (Rattus norvegicus, UniProt Q63921); experiment: Pharmacological studies in rats: COX1 inhibition; format: in vivo; conditions: studies conducted in rats
T1 construct: from tissue; host or cells: rat (in vivo pharmacological studies; tissue not given)

[1] = test system: guinea-pig isolated ileum; experiment: Intestinal motility in isolated ileum, various agonists; conditions: all of the traditional agonists: histamine, acetylcholine, serotonin (fig. 7, 8 and 9)
Excerpt: In parallel we also studied the possible effect on intestinal motility in the guinea-pig isolated ileum (b.r. No. 29) using various agonists (fig. 7, 8 and 9).

[2] = test system: rat isolated stomach strips; experiment: Gastric motility in isolated stomach strips, acetylcholine and serotonin as agonists; conditions: acetilcholine and serotonin as agonists (fig. 10, 11 and 12)

T1 sequence (Q63921 27-602): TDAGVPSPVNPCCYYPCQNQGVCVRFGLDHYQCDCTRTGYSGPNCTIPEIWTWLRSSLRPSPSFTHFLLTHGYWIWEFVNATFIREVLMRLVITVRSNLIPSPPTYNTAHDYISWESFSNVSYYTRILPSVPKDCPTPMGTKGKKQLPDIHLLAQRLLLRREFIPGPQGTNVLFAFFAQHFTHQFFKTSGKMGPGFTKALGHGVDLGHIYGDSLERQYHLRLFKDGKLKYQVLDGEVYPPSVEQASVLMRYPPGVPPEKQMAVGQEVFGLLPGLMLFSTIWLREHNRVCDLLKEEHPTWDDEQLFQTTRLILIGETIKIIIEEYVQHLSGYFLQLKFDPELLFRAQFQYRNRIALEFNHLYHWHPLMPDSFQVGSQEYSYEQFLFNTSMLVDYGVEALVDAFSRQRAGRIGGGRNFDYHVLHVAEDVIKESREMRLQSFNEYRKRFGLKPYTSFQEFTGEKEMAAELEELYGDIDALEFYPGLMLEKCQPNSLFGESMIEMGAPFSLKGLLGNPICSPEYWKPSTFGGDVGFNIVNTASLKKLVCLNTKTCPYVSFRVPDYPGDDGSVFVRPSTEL

With `COc1ccccc1OC(=O)CNC(=O)Cc1ccc(C(=O)c2ccc(C)cc2)n1C` [amtolmetin guacyl, 2-methoxyphenyl-1-methyl-5p-methylbenzoylpyrrol-2-acetamido acetate] the “inhibition of COX1” value (COX1 (cyclooxygenase 1)) was “inhibition”, the intestinal motility [1] was “decrease in motility” and the gastric motility [2] was “clear evidence of down-regulation of motility”.
